The source of these data is patent publication US20010056104A1, “Treatment of ocular hypertension and glaucoma” (priority 2000, published 2001).

Where two headings read alike, the source gives them in different places.

In data set [1] the test system is PGF2α receptors. The note with it: free acid form; contraction of cat iris sphincter; cited from earlier work.
Data set [2] has as its target T1, PGF2α receptors (Bos taurus, UniProt P37289).
T1 construct: host or cells: bovine corpus luteum
The note with it: free acid form; bovine corpus luteum; cited from earlier work.

Data set [3] has as its system human ciliary muscle cells. Put plainly: Intracellular calcium mobilization (Fura 2-AM) in human ciliary muscle cells. Format: cell-based. The note with it: for mobilization of intracellular calcium: concentrations ranging from 10-1000 nM; for affinity for EP1 or FP or TP receptors: suggested by inability to mobilize intracellular calcium. As to the method:
(§1) In ligand binding studies, the specificity of labeled unoprostone isopropyl and the metabolite binding to prostaglandin receptor sites in bovine corpus luteal membranes was determined. This tissue expresses most of the PG receptors including an abundance of FP receptors. In signal transduction studies, the mobilization of intracellular calcium using Fluorescence Imaging technique in the primary culture of human ciliary muscle cells and cyclic AMP generation in rabbit iris-ciliary body was measured.
Human ciliary muscle cells at confluency were loaded with Fura 2-AM. Cells in a petri dish were put in a jacketed chamber mounted on the microscope platform. The chamber was maintained at 37° C. by thermostatically controlled water circulating through the chamber jacket. The cells were then exposed to the excitation wavelengths of 334 and 380 nm with an emission wavelength of 510 nm. Cells were perfused with HEPES buffer with or without test compounds. The intracellular calcium was visualized and photographed using Attofluor RatioVision software program and Zeiss fluorescence microscope.
On the technique in general: A change in cytosolic calcium serves as a functional read-out for many receptors and channels.

Data set [4] concerns prostaglandin receptor sites in bovine corpus luteal membranes. Put plainly: Ligand binding assay in bovine corpus luteal membranes. The note with it: for binding to PG receptor sites: in words. As to the method: as §1
This method is well described in the literature. […] Free unbound ligands were separated by rapid filtration using a millipore filtration assembly. Membrane bound radioactivity retained by the filter was counted. It is important to define the following terms for appreciation of the binding data:
Total binding is defined as the amount bound in the absence of unlabeled ligand.
Specific binding is defined as the binding displaced by unlabeled ligand.
Non-specific binding is the binding not displaced by unlabeled ligand.

The conditions of data set [5]: long-term monkey trial, preliminary published results; cited from earlier work.
[6] abbreviates: competing ligand unoprostone isopropyl 2.5 μM.
Where [7] appears, read: competing ligand unoprostone isopropyl 5.0 μM.
Setting [8] is: competing ligand unoprostone isopropyl 8.0 μM.
Where [9] appears, read: competing ligand unoprostone isopropyl 16.0 μM.

T1 sequence (P37289 whole entry): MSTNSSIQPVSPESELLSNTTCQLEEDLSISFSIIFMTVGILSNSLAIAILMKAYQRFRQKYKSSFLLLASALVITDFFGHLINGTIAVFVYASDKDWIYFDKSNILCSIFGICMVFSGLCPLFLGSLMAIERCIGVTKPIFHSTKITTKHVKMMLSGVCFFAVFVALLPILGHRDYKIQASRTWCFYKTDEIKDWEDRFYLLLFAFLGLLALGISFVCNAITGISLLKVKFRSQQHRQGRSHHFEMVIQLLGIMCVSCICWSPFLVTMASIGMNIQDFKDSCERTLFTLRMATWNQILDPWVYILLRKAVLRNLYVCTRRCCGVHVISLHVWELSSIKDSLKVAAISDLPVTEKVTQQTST

With `CCCCCCCC(=O)CC[C@@H]1[C@@H](C/C=C\CCCC(=O)O)[C@@H](O)C[C@H]1O` [metabolite], the “agonistic activity to PGF2α receptors relative to PGF2α” value in the data set with PGF2α receptors [1] is 1/1600. In addition, the “binding inhibitory activity relative to PGF2α” value on PGF2α receptors [2] was 1/280. In data set [3], the “mobilization of intracellular calcium” value is on record as “did not mobilize” and the “affinity for EP1 or FP or TP receptors” value was “no affinity”. Also, the “binding to PG receptor sites” value in data set [4] is given as “does not bind”.

For the compound `CCCCCCCC(=O)CC[C@@H]1[C@@H](C/C=C\CCCC(=O)OC(C)C)[C@@H](O)C[C@H]1O` [unoprostone isopropyl, 13,14-dihydro-15-keto-20-ethyl PGF2α isopropyl ester], the “mobilization of intracellular calcium” value in data set [3] was “did not mobilize”. Moreover, in data set [3], the “affinity for EP1 or FP or TP receptors” value is reported as “no affinity”. Further, in data set [5], the iridic pigmentation entry is “no iridic pigmentation”. In addition, the entries for the “specific binding to bovine corpus luteal membranes (in words)” value in data set [4] and in data set [4] (listed as 3H-unoprostone isopropyl) were “no specific binding sites” and “no specific binding”, respectively. Also, the Total Binding in data set [4] (at 5 minutes) is listed as 21.0 fmoles/mg protein; in data set [4] (membrane protein conc. 50 μg), 13.0 ± 2.0 (3) fmoles/mg protein; in data set [4] (membrane protein conc. 100 μg), 23.0 ± 6.0 (3) fmoles/mg protein; in data set [4] (membrane protein conc. 200 μg), 32.0 ± 8.0 (3) fmoles/mg protein; in data set [4] (radioligand conc. 8.0 nM) it was 19.4 ± 2.0 ƒmoles/mg protein; in data set [4] (radioligand conc. 16.0 nM), 25.5 ± 4.0 ƒmoles/mg protein. In addition, in data set [4] (radioligand conc. 32.0 nM), the “Total Binding” value is listed as 40.0 ± 7.0 ƒmoles/mg protein. Besides, the “Specific Binding of 3H-unoprostone isopropyl” value in data set [4] (setting [6]), in data set [4] (setting [7]), in data set [4] (setting [8]) and in data set [4] (setting [9]) was 0 throughout. In addition, the “Total 3H-unoprostone isopropyl binding” value was 7.0 ƒmoles/mg protein in data set [4] (setting [6]), 6.5 ƒmoles/mg protein in data set [4] (setting [7]), 6.7 ƒmoles/mg protein in data set [4] (setting [8]) and 7.6 ƒmoles/mg protein in data set [4] (setting [9]). Further, in data set [4] (competition studies), the “displacement of bound 3H-unoprostone isopropyl by unlabeled competing ligand” value was “did not displace”. Also, in data set [4] (concluded from competition studies), the “binding to DP, EP1, EP2, EP3, IP and TP receptor sites” value is given as “does not bind”. The “binding to PG receptor sites” value in data set [4] is recorded as “does not bind”. Also, the “Specific Binding” value in data set [4] (radioligand conc. 8.0 nM), in data set [4] (radioligand conc. 16.0 nM) and in data set [4] (radioligand conc. 32.0 nM) was 0 fmoles/mg protein throughout. Also, the “change of total binding with time” value in data set [4] (up to 60 minutes) is reported as “did not increase with time”.
